Measured values taken from patent US20090062253A1, “HETEROCYCLODIAZEPINE CANNABINOID RECEPTOR MODULATORS FOR TREATMENT OF DISEASE” (KALYPSYS, INC., priority 2007, published 2009).

Assays:
[1] = biological target: T1, Human CB2 (Homo sapiens, UniProt P34972); assay: Human CB2 Radioligand Binding Assay; conditions: membranes from stably transfected CHO CB2 cells; competition with [3H] CP-55,940; read-out: CB2 Ligand Binding Asssay
T1 construct: expressed in transfected cells; membrane preparation
T1 sequence (P34972 whole entry): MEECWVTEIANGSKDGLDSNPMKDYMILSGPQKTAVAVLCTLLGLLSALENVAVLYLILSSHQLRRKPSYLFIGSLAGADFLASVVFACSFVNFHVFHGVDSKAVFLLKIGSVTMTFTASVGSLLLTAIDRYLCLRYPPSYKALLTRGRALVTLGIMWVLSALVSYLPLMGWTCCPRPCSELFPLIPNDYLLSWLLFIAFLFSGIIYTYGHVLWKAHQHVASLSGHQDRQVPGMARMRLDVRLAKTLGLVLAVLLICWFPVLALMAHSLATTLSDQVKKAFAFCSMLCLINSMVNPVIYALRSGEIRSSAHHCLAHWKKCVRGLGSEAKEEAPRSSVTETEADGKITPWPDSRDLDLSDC
Protocol: (§1) This receptor binding filtration assay measures the receptor-ligand interactions of compounds by measuring ability to compete with a radiolabeled control ligand. Reactions were performed in 96 deep-well plate (Costar 3961) with a final volume of 600 ul. Compounds were added to each well either in single point (10 uM final) or dose-response. Compounds were delivered in DMSO or further diluted in incubation buffer to a final assay DMSO concentration of 1%. Incubation buffer (50 mM Tris-HCl pH 7.4, 2.5 mM EGTA, 5 mM MgCl2, 5.0 mg/ml fatty acid free BSA) was added to each well. Following buffer addition, [^3H] CP-55,940 was added. Tritiated CP-55,940 (Perkin Elmer) was used at the Kd determined from prior saturation binding experiments conducted on each lot of membranes. Membrane preparations from stably transfected CHO CB2 cells were added and the reaction was incubated for 90 minutes at 30° C. Unifilter GF/C filtration plates (Perkin Elmer) were pre-wet with 0.05% polyethylenimine. Samples were transferred to Unifilter plates and separation of unbound radioligand was achieved using a vacuum manifold (Millipore). Following thorough washing with 5 ml/well ice-cold wash buffer (50 mM Tris-HCl pH 7.4, 2.5 mM EGTA, 5 mM MgCl2, 0.5 mg/ml fatty acid free BSA), filterplates were dried completely. Betaplate Scint Scintillation cocktail (25 ul, Perkin Elmer) was applied and plates were read using Microbeta Trilux (Wallac). Data analysis was performed in Spotfire. Activity of the positive control (100 nM CP-55,940) was set as 100% efficacy.
Stable recombinant Human CB2-CHO cell membranes were prepared as follows: Chinese Hamster Ovarian (CHO) cells stably expressing human cannabinoid receptor type 2 were grown to ˜90% confluence in 15×100 mm culture dishes under puromycin selection (5 ug/ml) Cells were harvested from culture flasks using a cell scraper, were washed once with cold phosphate-buffered saline (calcium and magnesium free) and pelleted by centrifugation at 400 g for 5 min at 4° C. Cell pellet was washed once with cold phosphate-buffered saline and centrifuged again at 400×g for 5 min at 4° C. The pellet was suspended in ice-cold lysis buffer (10 mM Tris-HCl, 0.1 mM EDTA, containing […], pH 7.5) and homogenized in a chilled 7 ml glass dounce homogenizer using 50 strokes. The homogenate was centrifuged at 400 g for 15 min at 4° C. The cloudy supernatant was collected and centrifuged at 41000 g for 30 min at 4° C. The resulting pellet was washed with ice-cold sucrose-free lysis buffer and centrifuged again at 41000 g for 30 min at 4° C. The membrane pellet was suspended in sucrose-free storage buffer (10 mm Tris-HCl, 0.1 mM EDTA, pH 7.5) to a concentration of 2-3 mg protein/ml. Aliquots were flash frozen in liquid nitrogen and stored at −80° C. Concentration was determined using Dc protein assay kit (Bio-Rad).

[2] = biological target: T2, human cannabinoid receptor type 1 (Homo sapiens, UniProt P21554); assay: Human CB1 Radioligand Binding Assay (basis of selectivity CB2 vs. CB1)
T2 construct: purchased Perkin Elmer RBHCB1M; host or cells: HEK 293 EBNA cells
T2 sequence (P21554 whole entry): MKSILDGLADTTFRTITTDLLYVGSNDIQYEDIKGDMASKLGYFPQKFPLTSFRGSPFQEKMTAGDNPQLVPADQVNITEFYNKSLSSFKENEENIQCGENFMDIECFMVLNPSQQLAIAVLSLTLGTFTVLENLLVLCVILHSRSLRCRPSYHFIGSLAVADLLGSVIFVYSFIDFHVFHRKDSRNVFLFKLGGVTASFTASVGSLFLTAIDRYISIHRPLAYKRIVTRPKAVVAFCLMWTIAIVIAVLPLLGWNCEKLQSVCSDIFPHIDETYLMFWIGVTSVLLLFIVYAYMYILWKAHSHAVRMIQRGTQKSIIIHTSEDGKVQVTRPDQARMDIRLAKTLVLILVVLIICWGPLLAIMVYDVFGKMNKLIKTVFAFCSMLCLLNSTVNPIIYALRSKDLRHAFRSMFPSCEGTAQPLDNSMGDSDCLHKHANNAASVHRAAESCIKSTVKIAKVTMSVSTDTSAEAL
Protocol: as §1
The CB1 binding assay was performed as described above except that HEK 293 EBNA cells expressing human cannabinoid receptor type 1 (Perkin Elmer cat #RBHCB1M) were used according the manufacturer's instructions. The incubation buffer was composed of 50 mM Tris-HCl pH 7.4, 2.5 mM EDTA, 5 mM MgCl2, 5.0 mg/ml fatty acid free BSA and the wash buffer was composed of 50 mM Tris-HCl pH 7.4, 2.5 mM EDTA, 5 mM MgCl2, 0.5 mg/ml fatty acid free BSA. Activity of the positive control (100 nM CP-55,940) was set as 100% efficacy.

Row | SMILES | IC50 (radioligand displacement) [1] [µM] | Selectivity, CB2 vs. CB1 [2]
1 | O=C(Nc1ccc(Cl)cc1Cl)N1CCCn2cccc2C1Cc1ccccc1 (centres unmarked) [Example 21, 1-Benzyl-N-(2,4-dichlorophenyl)-4,5-dihydro-1H-pyrrolo[1,2-a][1,4]diazepine-2(3H)-carboxamide] | > 1 | − (− indicates < 10-fold)
2 | CC(C)(C)c1ccc(CC2c3cccn3CCCN2C(=O)Nc2ccc(F)cc2F)cc1 (centres unmarked) [Example 23, 1-(4-tert-Butylbenzyl)-N-(2,4-difluorophenyl)-4,5-dihydro-1H-pyrrolo[1,2-a][1,4]diazepine-2(3H)-carboxamide] | < 1 | + (+ indicates > 10-fold)
3 | CC(C)(C)c1ccc(CC2c3cccn3CCCN2C(=O)Nc2ccc(Cl)cc2Cl)cc1 (centres unmarked) [Example 24, 1-(4-tert-Butylbenzyl)-N-(2,4-dichlorophenyl)-4,5-dihydro-1H-pyrrolo[1,2-a][1,4]diazepine-2(3H)-carboxamide] | < 1 | − (− indicates < 10-fold)
4 | CC(C)(C)c1ccc(C2c3ccnn3CCCN2C(=O)Nc2ccc(Cl)cc2Cl)cc1 (centres unmarked) [Example 25, 4-(4-tert-Butylphenyl)-N-(2,4-dichlorophenyl)-7,8-dihydro-4H-pyrazolo [1,5-a][1,4]diazepine-5(6H)-carboxamide] | < 1 | + (+ indicates > 10-fold)
5 | CC(C)(C)c1ccc(C2c3nccn3CCCN2C(=O)Nc2ccc(F)cc2F)cc1 (centres unmarked) [Example 27, 9-(4-tert-Butylphenyl)-N-(2,4-difluorophenyl)-6,7-dihydro-5H-imidazo [1,2-a][1,4]diazepine-8(9H)-carboxamide] | < 1 | + (+ indicates > 10-fold)
6 | CC(C)(C)c1ccc(C2c3nccn3CCCN2C(=O)Nc2ccc(F)c(F)c2)cc1 (centres unmarked) [Example 28, 9-(4-tert-Butylphenyl)-N-(3,4-difluorophenyl)-6,7-dihydro-5H-imidazo[1,2-a][1,4]diazepine-8(9H)-carboxamide] | < 1 | + (+ indicates > 10-fold)
7 | CC(C)(C)c1ccc(C2c3nccn3CCCN2C(=O)Nc2ccc(Cl)cc2Cl)cc1 (centres unmarked) [Example 29, 9-(4-tert-Butylphenyl)-N-(2,4-dichlorophenyl)-6,7-dihydro-5H-imidazo[1,2-a][1,4]diazepine-8(9H)-carboxamide] | > 1 | − (− indicates < 10-fold)
8 | CC(C)(C)c1ccc(C2c3cncn3CCCN2C(=O)Nc2ccc(Cl)cc2Cl)cc1 (centres unmarked) [Example 31, 9-(4-tert-Butylphenyl)-N-(2,4-dichlorophenyl)-6,7-dihydro-5H-imidazo[1,5-a][1,4]diazepine-8(9H)-carboxamide] | < 1 | + (+ indicates > 10-fold)
9 | CC(C)(C)C1CCC(C2NCCCn3cccc32)CC1 (centres unmarked) [Example 32, 1-(4-tert-Butylcyclohexyl)-2,3,4,5-tetrahydro-1H-pyrrolo[1,2-a][1,4]diazepine] | > 1 | + (+ indicates > 10-fold)
10 | CC(C)(C)C1CCC(C2c3cccn3CCCN2C(=O)Nc2ccc(F)c(F)c2)CC1 (centres unmarked) [Example 33, 1-(4-tert-Butylcyclohexyl)-N-(3,4-difluorophenyl)-4,5-dihydro-1H-pyrrolo[1,2-a][1,4]diazepine-2(3H)-carboxamide] | < 1 | − (− indicates < 10-fold)
11 | CC(C)(C)C1CCC(C2c3cccn3CCCN2C(=O)Nc2ccc(F)cc2F)CC1 (centres unmarked) [Example 34, 1-(4-tert-Butylcyclohexyl)-N-(2,4-difluorophenyl)-4,5-dihydro-1H-pyrrolo[1,2-a][1,4]diazepine-2(3H)-carboxamide] | < 1 | + (+ indicates > 10-fold)
12 | CC(C)(C)C1CCC(C2c3cccn3CCCN2C(=O)Nc2ccc(Cl)cc2Cl)CC1 (centres unmarked) [Example 35, 1-(4-tert-Butylcyclohexyl)-N-(2,4-dichlorophenyl)-4,5-dihydro-1H-pyrrolo[1,2-a][1,4]diazepine-2(3H)-carboxamide] | < 1 | − (− indicates < 10-fold)
13 | CC(C)(C)c1ccc(C2c3ccnn3CCCN2C(=O)Nc2ccc(F)cc2F)cc1 (centres unmarked) [Example 36, 4-(4-tert-Butylphenyl)-N-(2,4-difluorophenyl)-7,8-dihydro-4H-pyrazolo[1,5-a][1,4]diazepine-5(6H)-carboxamide] | < 1 | + (+ indicates > 10-fold)
14 | CC(C)(C)c1ccc(C2c3cncn3CCCN2C(=O)Nc2ccc(F)cc2F)cc1 (centres unmarked) [Example 37, 9-(4-tert-Butylphenyl)-N-(2,4-difluorophenyl)-6,7-dihydro-5H-imidazo[1,5-a][1,4]diazepine-8(9H)-carboxamide] | < 1 | + (+ indicates > 10-fold)
15 | O=C(Nc1ccc(F)cc1F)N1CCCn2cccc2C1Cc1ccccc1 (centres unmarked) [Example 41, 1-Benzyl-N-(2,4-difluorophenyl)-4,5-dihydro-1H-pyrrolo[1,2-a][1,4]diazepine-2(3H)-carboxamide] | > 1 | − (− indicates < 10-fold)
16 | CC(C)(C)C1CCC(C2c3cccn3CCCN2C(=O)c2ccc(F)cc2F)CC1 (centres unmarked) [Example 45, (1-(4-tert-Butylcyclohexyl)-4,5-dihydro-1H-pyrrolo[1,2-a][1,4]diazepin-2(3H)-yl)(2,4-difluorophenyl)methanone] | < 1 | − (− indicates < 10-fold)
17 | CC(=O)N1CCCn2cccc2C1c1ccc(C(C)(C)C)cc1 (centres unmarked) [Example 46, 1-(1-(4-tert-Butylphenyl)-4,5-dihydro-1H-pyrrolo[1,2-a][1,4]diazepin-2(3H)-yl)ethanone] | > 1 | − (− indicates < 10-fold)
18 | CC(C)(C)c1ccc(C2c3nccn3CCCN2C(=O)c2ccc(F)cc2F)cc1 (centres unmarked) [Example 47, (9-(4-tert-Butylphenyl)-6,7-dihydro-5H-imidazo[1,2-a][1,4]diazepin-8(9H)-yl)(2,4-difluorophenyl)methanone] | < 1 | − (− indicates < 10-fold)
19 | CC(C)(C)c1ccc(C2c3nccn3CCCN2C(=O)c2ccc(Cl)cc2Cl)cc1 (centres unmarked) [Example 48, (9-(4-tert-Butylphenyl)-6,7-dihydro-5H-imidazo[1,2-a][1,4]diazepin-8(9H)-yl)(2,4-dichlorophenyl)methanone] | > 1 | − (− indicates < 10-fold)
20 | CC(C)(C)c1ccc(C2c3cccn3CCCN2C(=O)c2ccc(Cl)cc2Cl)cc1 (centres unmarked) [Example 49, (1-(4-tert-Butylphenyl)-4,5-dihydro-1H-pyrrolo[1,2-a][1,4]diazepin-2(3H)-yl)(2,4-dichlorophenyl)methanone] | < 1 | − (− indicates < 10-fold)
21 | CC(C)(C)c1ccc(C2c3cccn3CCCN2C(=O)Cc2ccc(F)cc2)cc1 (centres unmarked) [Example 50, 1-(1-(4-tert-Butylphenyl)-4,5-dihydro-1H-pyrrolo[1,2-a][1,4]diazepin-2(3H)-yl)-2-(4-fluorophenyl)ethanone] | < 1 | − (− indicates < 10-fold)
22 | CC(C)(C)c1ccc(C2c3cccn3CCCN2C(=O)Cc2c(F)cccc2F)cc1 (centres unmarked) [Example 51, 1-(1-(4-tert-Butylphenyl)-4,5-dihydro-1H-pyrrolo[1,2-a][1,4]diazepin-2(3H)-yl)-2-(2,6-difluorophenyl)ethanone] | > 1 | − (− indicates < 10-fold)
